According to paper PMC3729937 (Biochemical and biophysical research communications, 2012):

B1: wild type D2 domain of fibroblast growth factor receptor 2 (FGFR2), residues 145-255 (domain or fragment, human, UniProt P21802 145-255, looked up)
chain: SENSNNKRAPYWTNTEKMEKRLHAVPAANTVKFRCPAGGNPMPTMRWLKNGKEFKQEHRIGGYKVRNQHWSLIMESVVPSDKGNYTCVVENEYGSINHTYHLDVVERSPHR

Tests used:
FGFR2 D2 domain [1] = target: FGFR2 D2 domain (Homo sapiens, UniProt P21802); assay: ITC; format: binding
FGFR2 D2 domain [2] = target: FGFR2 D2 domain (Homo sapiens, UniProt P21802, A168S); assay: ITC, supported by 1H-15N HSQC chemical shift perturbation; format: binding
Sequence of FGFR2 D2 domain (Homo sapiens, UniProt P21802, A168S) (P21802 145-255 A168S): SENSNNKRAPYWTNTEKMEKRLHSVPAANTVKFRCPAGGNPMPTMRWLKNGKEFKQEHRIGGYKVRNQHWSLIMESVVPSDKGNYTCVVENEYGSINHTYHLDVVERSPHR

[3] = target: fibroblast growth factor (FGF-1) (UniProt P05230 16-155); assay: ITC
Sequence of fibroblast growth factor (FGF-1) (P05230 16-155): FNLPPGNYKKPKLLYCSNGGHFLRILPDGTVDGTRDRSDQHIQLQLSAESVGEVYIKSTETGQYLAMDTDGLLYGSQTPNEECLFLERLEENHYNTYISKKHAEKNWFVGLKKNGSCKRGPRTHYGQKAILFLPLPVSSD

Molecule | Kd (FGFR2 D2 domain [1]) | Kd (FGFR2 D2 domain [2]) | Kd [3]
O=S(=O)(O)OC[C@H]1O[C@@](COS(=O)(=O)O)(O[C@H]2O[C@H](COS(=O)(=O)O)[C@@H](OS(=O)(=O)O)[C@H](OS(=O)(=O)O)[C@H]2OS(=O)(=O)O)[C@@H](OS(=O)(=O)O)[C@@H]1OS(=O)(=O)O [SOS, sucrose octasulfate] | ~2200 nM | ~22000 nM | –
B1 | – | – | ~2000 nM
